The test system of one data set is PC-3. Briefly: Cytotoxicity against human PC3 cells assessed as growth inhibition at 50 uM after 48 hrs by SRB method. Type of data set: functional. The note with it: PC-3, 48 h, read-out: GI. (The SRB assay estimates cell density from bound dye.)
A further data set relates to MCF7. Briefly: Cytotoxicity against human MCF7 cells assessed as growth inhibition at 50 uM after 48 hrs by SRB method. Type of data set: functional. The note with it: for inhibition of growth at 50 µM: MCF7, 48 h, read-out: GI.
Data set [1] is described as follows: (§1) Cytotoxicity against human HCT15 cells assessed as growth inhibition at 50 uM after 48 hrs by SRB method. Type of data set: functional. The note with it: HCT-15, 48 h, read-out: GI.
The nature of data set [2]: Cytotoxicity against mouse J774 cells assessed as growth inhibition at 50 uM after 48 hrs by SRB method. The format is cell-based. The note with it: read-out: GI.
For another data set, the system named is HCT-15. Described as §1. The format is functional.

Calls of active or inactive are those of the source. The calls are words filed in the database; no cut-off is given here.

Take `CC(=O)C1=CC[C@H]2[C@@H]3CC(=O)C4=C[C@@H](OC(=O)Nc5ccccc5)CC[C@]4(C)[C@H]3CC[C@]12C`: the inhibition of growth at 50 µM with PC-3 was 4.5%; in the data set on MCF7, 34.7%; in data set [1] it was 41.4%. Also, the inhibition at 48 h, 50 µM in data set [2] stood at 73.8%.
Taken in the same sequence, the figures for `CC(=O)C1=CC[C@H]2[C@@H]3CC(=O)C4=C[C@@H](OC(=O)Nc5ccc(Br)cc5)CC[C@]4(C)[C@H]3CC[C@]12C` were 26.9%, 14%, 30% and 80.5%.
As to `CC(=O)[C@@]1(OC(=O)c2ccc(F)cc2)CC[C@H]2[C@@H]3C=CC4=CC(=O)CC[C@]4(C)[C@H]3CC[C@@]21C`, the inhibition of growth at 50 µM in the data set with PC-3 was determined as 30.9%; in the data set with MCF7, 29.2%; in data set [1] it was 35.6%. Besides, the inhibition at 48 h, 50 µM in data set [2] was determined as 100%.
In the case of `CC(=O)C1=CC[C@H]2[C@@H]3CC(=O)C4=C[C@@H](OC(=O)c5ccc(Br)cc5)CC[C@]4(C)[C@H]3CC[C@]12C`, the inhibition of growth at 50 µM worked out at 51.9% in the data set on PC-3, 86.2% with MCF7 and 55.9% in data set [1]. In addition, in data set [2], the inhibition at 48 h, 50 µM came to 60.9%.
Consider `CC(=O)C1=CC[C@H]2[C@@H]3CC(=O)C4=C[C@@H](OC(=O)Nc5ccc(Cl)cc5)CC[C@]4(C)[C@H]3CC[C@]12C`, for which the inhibition of growth at 50 µM in the data set with PC-3 was 63.4%; with MCF7, 13.7%; in data set [1], 65.3%. In addition, the inhibition at 48 h, 50 µM in data set [2] amounted to 92.4%.
With `CC(=O)[C@@]1(OC(=O)Nc2ccc(F)cc2)CC[C@H]2[C@@H]3C=CC4=CC(=O)CC[C@]4(C)[C@H]3CC[C@@]21C`, the inhibition of growth at 50 µM in the data set with PC-3 was 33.4%; in the data set with MCF7, 20%. Moreover, the “growth inhibition (GI)” value in the data set with HCT-15 was “inactive”. Besides, the inhibition at 48 h, 50 µM in data set [2] is 43.4%.
Regarding `CC(=O)N1CCN(c2ccc(OCC3COC(Cn4ccnc4)(c4ccc(Cl)cc4Cl)O3)cc2)CC1` (configuration not stated) [KETOCONAZOLE], the inhibition of growth at 50 µM in the data set with PC-3 came to 88.5%; with MCF7, 95.2%; in data set [1] it was 90.6%. Also, the inhibition at 48 h, 50 µM in data set [2] was 54%.
As for `CC(=O)C1=CC[C@H]2[C@@H]3CC(=O)C4=C[C@@H](OC(=O)c5ccc(Cl)cc5)CC[C@]4(C)[C@H]3CC[C@]12C`, the results for the inhibition of growth at 50 µM (in the data set with PC-3; with MCF7; in data set [1]) were 87.3%, 100% and 88.2%, respectively. In data set [2], the inhibition at 48 h, 50 µM turned out to be 38.8%.
With `CC(=O)[C@@]1(OC(=O)Nc2ccc(Br)cc2)CC[C@H]2[C@@H]3C=CC4=CC(=O)CC[C@]4(C)[C@H]3CC[C@@]21C`, the inhibition of growth at 50 µM was determined as 26.4% in the data set with PC-3 and 13.1% in the data set on MCF7. In addition, the “growth inhibition (GI)” value with HCT-15 is “inactive”. Further, in data set [2], the inhibition at 48 h, 50 µM was found to be 32%.
As to `CC(=O)C1=CC[C@H]2[C@@H]3CC(=O)C4=C[C@@H](OC(=O)c5ccc(F)cc5)CC[C@]4(C)[C@H]3CC[C@]12C`, the inhibition of growth at 50 µM was determined as 8.3% in the data set with PC-3, 20.8% in the data set on MCF7 and 22.8% in data set [1]. The inhibition at 48 h, 50 µM in data set [2] came to 50%.
For `CC(=O)C1=CC[C@H]2[C@@H]3CC(=O)C4=C[C@@H](O)CC[C@]4(C)[C@H]3CC[C@]12C` the same measures were 70.6%, 63.5%, 67.7% and 98.9%.
`CC(=O)C1=CC[C@H]2[C@@H]3CC(=O)C4=C[C@@H](OC(=O)Nc5ccc(F)cc5)CC[C@]4(C)[C@H]3CC[C@]12C`: the inhibition of growth at 50 µM with PC-3 was 33%; with MCF7 it was 34.6%; in data set [1] it was 60.1%. The inhibition at 48 h, 50 µM in data set [2] is 78.3%.
For `CC(=O)[C@@]1(OC(=O)c2ccc(Br)cc2)CC[C@H]2[C@@H]3C=CC4=CC(=O)CC[C@]4(C)[C@H]3CC[C@@]21C` the same measures were 84.7%, 44.4%, 53.9% and 57%.
As for `CC(=O)[C@@]1(OC(=O)Nc2ccc(I)cc2)CC[C@H]2[C@@H]3C=CC4=CC(=O)CC[C@]4(C)[C@H]3CC[C@@]21C`, in the data set on PC-3, the inhibition of growth at 50 µM stood at 17.8%. The “growth inhibition (GI)” value with MCF7 and in the data set with HCT-15 was “inactive” in each case. Moreover, the inhibition at 48 h, 50 µM in data set [2] came to 21.7%.
For the molecule `CC(=O)[C@@]1(OC(=O)c2ccc(I)cc2)CC[C@H]2[C@@H]3C=CC4=CC(=O)CC[C@]4(C)[C@H]3CC[C@@]21C`, the inhibition of growth at 50 µM in the data set on PC-3 is 30.8%; in the data set on MCF7 it was 22.6%; in data set [1], 27.5%. Besides, in data set [2], the inhibition at 48 h, 50 µM is 74.3%.
For `CC(=O)[C@@]1(OC(=O)Nc2ccc(Cl)cc2)CC[C@H]2[C@@H]3C=CC4=CC(=O)CC[C@]4(C)[C@H]3CC[C@@]21C`, the values for the inhibition of growth at 50 µM in the data set on PC-3 and in the data set on MCF7 were 15.8% and 11.2%, respectively. Moreover, the “growth inhibition (GI)” value with HCT-15 was “inactive”. For the same molecule, in data set [2], the inhibition at 48 h, 50 µM turned out to be 36.9%.
Consider `CC(=O)[C@@]1(O)CC[C@H]2[C@@H]3C=CC4=CC(=O)CC[C@]4(C)[C@H]3CC[C@@]21C`, for which the values for the inhibition of growth at 50 µM (in the data set with PC-3; in the data set with MCF7; in data set [1]) were 39.6%, 27.8% and 25%, respectively. Also, in data set [2], the inhibition at 48 h, 50 µM came out at 58.5%.
Taken in the same sequence, the figures for `CC(=O)[C@@]1(OC(=O)c2ccccc2)CC[C@H]2[C@@H]3C=CC4=CC(=O)CC[C@]4(C)[C@H]3CC[C@@]21C` were 42.5%, 26.8%, 50.8% and 100%.
For `CC(=O)C1=CC[C@H]2[C@@H]3CC(=O)C4=C[C@@H](OC(=O)Nc5ccc(I)cc5)CC[C@]4(C)[C@H]3CC[C@]12C` the same measures were 42.8%, 33.1%, 43.2% and 70.7%.
Taken in the same sequence, the figures for `CC(=O)C1=CC[C@H]2[C@@H]3CC(=O)C4=C[C@@H](OC(=O)c5ccccc5)CC[C@]4(C)[C@H]3CC[C@]12C` were 2.9%, 32.7%, 48.7% and 89.3%.
As to `CC(=O)C1=CC[C@H]2[C@@H]3CC(=O)C4=C[C@@H](OC(=O)c5ccc(I)cc5)CC[C@]4(C)[C@H]3CC[C@]12C`, the inhibition of growth at 50 µM in the data set on PC-3 was 64.1%; in the data set on MCF7, 100%; in data set [1] it was 67.3%. Moreover, the inhibition at 48 h, 50 µM in data set [2] turned out to be 61.1%.
For `CC(=O)[C@@]1(OC(=O)Nc2ccccc2)CC[C@H]2[C@@H]3C=CC4=CC(=O)CC[C@]4(C)[C@H]3CC[C@@]21C`, the inhibition of growth at 50 µM with PC-3 turned out to be 96.6%; in the data set on MCF7, 51.3%; in data set [1] it was 45.3%. Besides, in data set [2], the inhibition at 48 h, 50 µM is 48.2%.
For `CC(=O)[C@@]1(OC(=O)c2ccc(Cl)cc2)CC[C@H]2[C@@H]3C=CC4=CC(=O)CC[C@]4(C)[C@H]3CC[C@@]21C` the same measures were 46.1%, 39.8%, 39.3% and 73.6%.

Source of the values: ChEMBL document CHEMBL3286271, “Synthesis and cytotoxic effect on cancer cell lines and macrophages of novel progesterone derivatives having an ester or a carbamate function at C-3 and C-17” (Eur J Med Chem, 2014).
